# Reference: patent US10533006B2, “Nitrogen-containing heterocycle and carbocycle derivatives having TrkA inhibitory activity” (Shionogi & Co., Ltd., priority 2016, dated 2020)
# Like-named read-outs stand apart in the source and are kept apart here.
# Biological target: T1, human TrkA (Homo sapiens, UniProt P04629)
# T1 construct: purchased Lifetechnologies PV3144
# Assay: Human TrkA inhibition assay
# Type: biochemical
# Conditions: human TrkA phosphorylation inhibition, ATP 500 μmol/L
# Method: Seven point five L per well of human TrkA (PV3144, Lifetechnologies, final concentration: 1 nmol/L) suspended in the assay buffer (100 mmol/L 4-(2-hydroxyethyl)-1-piperazineethanesulfonic acid (HEPES), 10 mmol/L magnesium chloride, 0.003 vol % Brij-35, 0.004 vol % Tween20 and 1 mmol/L dithiothreitol (DTT)) was applied in a 384 well plate and the plate was pre-incubated for 15 min at room temperature with 0.4 μL of each compound (final concentration: 200 μmol/L-0.1 nM) dissolved in DMSO. Then, fluorescent substrate (FL-peptide 27, 760424, PerkinElmer, final concentration: 1.5 μmol/L) and ATP (final concentration 500 μmol/L) dissolved in the assay buffer was added in each well. After the incubation of 120 min at 37° C., fifteen μL of termination buffer (100 mmol/L HEPES, 40 mmol/L ethylenediaminetetraacetic acid (EDTA), 10 mmol/L magnesium chloride, 0.003 vol % Brij-35, 0.004 vol % Tween20, 1 mmol/L DTT and 0.16 vol % Coating Reagent 3) was added in each well to stop the enzyme reaction. Fluorescent intensities (FI) of phosphorylated and non-phosphorylated fluorescent substrates were measured by LabChip EZReader II (Caliper LifeSciences, Inc.), and conversion ratio (CR) was calculated by the following formula-1. The CR in the well applied with DMSO alone was used as a negative control and the CR in the well without applying TrkA was used as a positive control. The inhibitory effect of each compound on TrkA phosphorylation was calculated by the following formula-2. CR (%)=(FI of phosphorylated substrate/(FI of phosphorylated substrate+FI of non-phosphorylated substrate))×100 (Formula-1) Phosphorylation inhibition (%)=(1−(CR with compound treatment−CR of positive control)/(CR of negative control−CR of positive control))×100 (Formula-2)
# IC50 values (nmol/L) were determined by the logistic regression using the inhibition data in 10 points of 3-fold dilution series at a compound concentration range of 2 μmol/L to 0.1 nmol/L, or 15 points of 3-fold dilution series at the range of 200 μmol/L to 0.04 nmol/L.
# T1 sequence (P04629 33-796): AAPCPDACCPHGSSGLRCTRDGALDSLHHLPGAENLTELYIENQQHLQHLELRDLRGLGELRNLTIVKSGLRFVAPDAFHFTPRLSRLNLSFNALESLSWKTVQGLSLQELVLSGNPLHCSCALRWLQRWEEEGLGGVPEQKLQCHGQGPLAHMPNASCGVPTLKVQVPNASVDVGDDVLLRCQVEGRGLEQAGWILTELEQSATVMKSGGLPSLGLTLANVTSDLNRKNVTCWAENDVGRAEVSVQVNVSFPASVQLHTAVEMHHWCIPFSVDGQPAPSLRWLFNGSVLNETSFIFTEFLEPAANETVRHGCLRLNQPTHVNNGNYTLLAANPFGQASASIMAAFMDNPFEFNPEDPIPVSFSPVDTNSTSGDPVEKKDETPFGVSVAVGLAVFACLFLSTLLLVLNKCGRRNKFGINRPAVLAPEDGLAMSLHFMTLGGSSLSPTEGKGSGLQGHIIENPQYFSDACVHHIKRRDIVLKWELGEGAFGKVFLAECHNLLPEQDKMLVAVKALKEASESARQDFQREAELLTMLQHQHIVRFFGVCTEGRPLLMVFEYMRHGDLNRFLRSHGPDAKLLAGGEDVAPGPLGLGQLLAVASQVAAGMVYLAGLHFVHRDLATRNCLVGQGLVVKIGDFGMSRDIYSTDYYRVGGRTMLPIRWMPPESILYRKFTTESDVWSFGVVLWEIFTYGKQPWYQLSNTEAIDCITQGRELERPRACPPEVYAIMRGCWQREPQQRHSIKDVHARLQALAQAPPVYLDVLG
SMILES,IC50 (read-out: IC50_nM) [nM],IC50 (read-out: IC50 value) [nM]
COCCN1C[C@@H](NC(=O)Nc2c(C)c(-c3cnn(C)c3)nn2-c2ccccc2)[C@H](c2cc(Cl)nc(Cl)c2)C1 (racemic) [Compound I-4],100 to 1000,–
Cc1c(-c2cnn(C)c2)nn(-c2ccccc2)c1NC(=O)N[C@@H]1CN(Cc2ccccc2)C[C@H]1c1ccnc(F)c1 (racemic) [Compound I-18],> 1000,–
COCCN1C[C@@H](NC(=O)Nc2c(C)c(-c3cnc4ccnn4c3)nn2-c2ccccc2)[C@H](c2ccccc2)C1 (racemic) [Compound I-40],< 100,–
COCCN1C[C@@H](NC(=O)Nc2c(C)c(-c3ccc(C(=O)NC4CCOCC4)nc3)nn2-c2ccccc2)[C@H](c2ccccc2)C1 (racemic) [Compound I-41],< 100,–
COCCN1C[C@@H](NC(=O)Nc2c(C)c(-c3ccc(C(N)=O)nc3)nn2-c2ccccc2)[C@H](c2ccccc2)C1 (racemic) [Compound I-42],< 100,–
CCN1CCC(NC(=O)c2cc(-c3nn(-c4ccccc4)c(NC(=O)N[C@@H]4CN(CCOC)C[C@H]4c4ccccc4)c3C)ccn2)CC1 (racemic) [Compound I-43],< 100,–
COCCN1C[C@@H](NC(=O)Nc2c(C)c(-c3ccnc(C(N)=O)c3)nn2-c2ccccc2)[C@H](c2ccccc2)C1 (racemic) [Compound I-44],< 100,–
CNC(=O)c1cc(-c2nn(-c3ccccc3)c(NC(=O)N[C@@H]3CN(CCOC)C[C@H]3c3ccccc3)c2C)ccn1 (racemic) [Compound I-45],< 100,–
CCNC(=O)c1cc(-c2nn(-c3ccccc3)c(NC(=O)N[C@@H]3CN(CCOC)C[C@H]3c3ccccc3)c2C)ccn1 (racemic) [Compound I-46],< 100,–
COCCN1C[C@@H](NC(=O)Nc2c(C)c(-c3ccnc(C(=O)N(C)C)c3)nn2-c2ccccc2)[C@H](c2ccccc2)C1 (racemic) [Compound I-47],< 100,–
COCCN1C[C@@H](NC(=O)Nc2c(C)c(-c3ccnc(C(=O)NCC(F)(F)F)c3)nn2-c2ccccc2)[C@H](c2ccccc2)C1 (racemic) [Compound I-48],< 100,–
COCCN1C[C@@H](NC(=O)Nc2c(C)c(-c3ccnc(C(=O)NCCO)c3)nn2-c2ccccc2)[C@H](c2ccccc2)C1 (racemic) [Compound I-49],< 100,–
CCN1CCC(NC(=O)c2ccc(-c3nn(-c4ccccc4)c(NC(=O)N[C@@H]4CN(CCOC)C[C@H]4c4ccccc4)c3C)cn2)CC1 (racemic) [Compound I-50],< 100,–
COCCN1C[C@@H](NC(=O)Nc2c(C)c(-c3cnc4c(c3)ncn4C)nn2-c2ccccc2)[C@H](c2ccccc2)C1 (racemic) [Compound I-51],< 100,–
CNC(=O)c1cc(-c2nn(-c3ccccc3)c(NC(=O)N[C@@H]3CN(CCOC)C[C@H]3c3ccccc3)c2C)cn(C)c1=O (racemic) [Compound I-52],< 100,–
CNC(=O)c1cc(-c2nn(-c3ccccc3)c(NC(=O)N[C@@H]3CN(CCOC)C[C@H]3c3ccccc3)c2C)cnc1OC (racemic) [Compound I-53],< 100,–
CCNC(=O)c1cc(-c2nn(-c3ccccc3)c(NC(=O)N[C@@H]3CN(CCOC)C[C@H]3c3ccccc3)c2C)cn(C)c1=O (racemic) [Compound I-54],< 100,–
CCNC(=O)c1cc(-c2nn(-c3ccccc3)c(NC(=O)N[C@@H]3CN(CCOC)C[C@H]3c3ccccc3)c2C)cnc1OC (racemic) [Compound I-55],< 100,–
COCCN1C[C@@H](NC(=O)Nc2c(C)c(-c3cc(C(=O)NC4CCOCC4)c(=O)n(C)c3)nn2-c2ccccc2)[C@H](c2ccccc2)C1 (racemic) [Compound I-56],–,0.98
COCCN1C[C@@H](NC(=O)Nc2c(C)c(-c3cnc(OC)c(C(=O)NC4CCOCC4)c3)nn2-c2ccccc2)[C@H](c2ccccc2)C1 (racemic) [Compound I-57],–,1
COCCN1C[C@@H](NC(=O)Nc2c(C)c(-c3cnc(C)nc3)nn2-c2ccccc2)[C@H](c2cnc(F)c(F)c2)C1 (racemic) [Compound I-60],< 100,–
CNC(=O)c1ncc(-c2nn(-c3ccccc3)c(NC(=O)N[C@@H]3CN(CCOC)C[C@H]3c3ccccc3)c2C)cc1C (racemic) [Compound I-61],< 100,–
COCCN1C[C@@H](NC(=O)Nc2c(C)c(-c3cnn(C)c3)nn2-c2ccccc2)[C@H](c2cnc(Cl)s2)C1 (racemic) [Compound I-62],< 100,–

# Continued, values first:
IC50 (read-out: IC50_nM) [nM],IC50 (read-out: IC50 value) [nM],SMILES
< 100,–,COCCN1C[C@@H](NC(=O)Nc2c(C)c(-c3ccnc(C(=O)N[C@@H]4CCCOC4)c3)nn2-c2ccccc2)[C@H](c2ccccc2)C1 (mixture of isomers) [Compound I-72]
< 100,–,COCCN1C[C@@H](NC(=O)Nc2c(C)c(-c3cnn(C)c3)nn2-c2ccccc2)[C@H](c2ccnc(Cl)c2)C1 (racemic) [Compound I-1]
< 100,–,COCCN1C[C@@H](NC(=O)Nc2c(C)c(-c3cnn(C)c3)nn2-c2ccccc2)[C@H](c2ccnc(F)c2)C1 (racemic) [Compound I-2]
< 100,–,COCCN1C[C@@H](NC(=O)Nc2c(C)c(-c3ccc4c(cnn4C)c3)nn2-c2ccccc2)[C@H](c2ccccc2)C1 (racemic) [Compound I-3]
< 100,–,COCCN1C[C@@H](NC(=O)Nc2c(C)c(-c3cnn(C)c3)nn2-c2ccccc2)[C@H](c2cc(F)nc(F)c2)C1 (racemic) [Compound I-7]
< 100,–,COCCN1C[C@@H](NC(=O)Nc2c(C)c(-c3ccc(C(=O)NCC(F)(F)F)nc3)nn2-c2ccccc2)[C@H](c2ccccc2)C1 (racemic) [Compound I-12]
< 100,–,COCCN1C[C@@H](NC(=O)Nc2c(C)c(-c3cnn(C)c3)nn2-c2ccccc2)[C@H](c2cnc(Cl)c(F)c2)C1 (racemic) [Compound I-16]
< 100,–,COCCN1C[C@@H](NC(=O)Nc2c(C)c(-c3cnc4c(cnn4C)c3)nn2-c2ccccc2)[C@H](c2ccccc2)C1 (racemic) [Compound I-17]
< 100,–,COCCN1C[C@@H](NC(=O)Nc2c(C)c(-c3cnn(C)c3)nn2-c2ccccc2)[C@H](c2cnc(F)c(Cl)c2)C1 (racemic) [Compound I-19]
< 100,–,Cc1c(-c2cnn(C)c2)nn(-c2ccccc2)c1NC(=O)N[C@@H]1CN(CCOC(F)(F)F)C[C@H]1c1ccnc(F)c1 (racemic) [Compound I-20]
< 100,–,COCCN1C[C@@H](NC(=O)Nc2c(C)c(-c3ccc4c(cnn4C)c3)nn2-c2ccccc2)[C@H](c2cnc(F)c(F)c2)C1 (racemic) [Compound I-26]
< 100,–,COCCN1C[C@@H](NC(=O)Nc2c(C)c(-c3ccc(C(=O)NCc4ccccc4)nc3)nn2-c2ccccc2)[C@H](c2ccccc2)C1 (racemic) [Compound I-27]
< 100,–,COCCN1C[C@@H](NC(=O)Nc2c(C)c(-c3cnc4cnn(C)c4c3)nn2-c2ccccc2)[C@H](c2ccccc2)C1 (racemic) [Compound I-28]
< 100,–,COCCN1C[C@@H](NC(=O)Nc2c(C)c(-c3ccnc(C(=O)NC4CCOCC4)c3)nn2-c2ccccc2)[C@H](c2ccccc2)C1 (racemic) [Compound I-29]
< 100,–,COCCN1C[C@@H](NC(=O)Nc2c(C)c(-c3cnc4nccn4c3)nn2-c2ccccc2)[C@H](c2ccccc2)C1 (racemic) [Compound I-30]
< 100,–,COCCN1C[C@@H](NC(=O)Nc2c(C)c(-c3cnc(OCCO)nc3)nn2-c2ccccc2)[C@H](c2ccccc2)C1 (racemic) [Compound I-31]
< 100,–,COCCN1C[C@@H](NC(=O)Nc2c(C)c(-c3cnc4nc(C)nn4c3)nn2-c2ccccc2)[C@H](c2ccccc2)C1 (racemic) [Compound I-32]
< 100,–,COCCN1C[C@@H](NC(=O)Nc2c(C)c(-c3cnc4ncnn4c3)nn2-c2ccccc2)[C@H](c2ccccc2)C1 (racemic) [Compound I-33]
< 100,–,COCCN1C[C@@H](NC(=O)Nc2c(C)c(-c3cnc4nc(C)oc4c3)nn2-c2ccccc2)[C@H](c2ccccc2)C1 (racemic) [Compound I-34]
< 100,–,CNC(=O)c1ccc(-c2nn(-c3ccccc3)c(NC(=O)N[C@@H]3CN(CCOC)C[C@H]3c3ccccc3)c2C)cn1 (racemic) [Compound I-35]
< 100,–,COCCN1C[C@@H](NC(=O)Nc2c(C)c(-c3ccc(C(=O)N(C)C)nc3)nn2-c2ccccc2)[C@H](c2ccccc2)C1 (racemic) [Compound I-36]
< 100,–,COCCN1C[C@@H](NC(=O)Nc2c(C)c(-c3cnc4c(c3)nnn4C)nn2-c2ccccc2)[C@H](c2ccccc2)C1 (racemic) [Compound I-37]
< 100,–,COCCN1C[C@@H](NC(=O)Nc2c(C)c(-c3cnc4c(ccn4C)c3)nn2-c2ccccc2)[C@H](c2ccccc2)C1 (racemic) [Compound I-38]
< 100,–,COCCN1C[C@@H](NC(=O)Nc2c(C)c(-c3cnn(C)c3)nn2-c2ccccc2)[C@H](c2cc(F)nc(Cl)c2)C1 (racemic) [Compound I-39]
